Measurements as given in US12605350B2, “Composition for preventing, ameliorating, or treating disease caused by nitration of tyrosine in proteins comprising tyrosine as effective component” (INDUSTRY-ACADEMIC COOPERATION FOUNDATION GYEONGSANG …, priority 2020, dated 2026).
Entries after “also recorded” stand apart in the source; their conditions may differ.

Key:
[1] = test system: chronic immobilization stress group (STR); experiment: ROS/RNS in plasma and PFC, chronic immobilization stress; assay type: in vivo, mouse; conditions: tyrosine diet (181.2 mg/kg) compared to normal diet
Experimental: Each of the blood and PFC sample was obtained from a mouse anesthetized with CO2 gas. Specifically, mouse blood was collected between 9 AM and 11 AM and stored in a K3EDTA-coated vacuum container. Plasma was obtained by centrifuge for 10 minutes at 4° C., 500×g. PFC sample was weighed first, and, after lysis of the tissues by using Bullet homogenizer, subjected to centrifuge for 20 minutes at 4° C., 12,000 rpm. Thus-obtained plasma and tissue lysate were kept at −80° C. until use. After that, the animal was sacrificed, and a change in corticosterone amount in plasma was examined. ROS/RNS in plasma and PFC was also examined. The corticosterone amount was examined using an ELISA kit (Cayman) by following the manufacturer's protocol, and ROS/RNS was also examined using an ROS/RNS assay kit (Cell Biolabs, San Diego, CA, USA) by following the manufacturer's protocol. The animal models were divided into two groups (i.e., normal group and stress group). The animal of stress group was individually brought by force to a restrainer for 2 hours every day (i.e., between 2 PM and 4 PM) so that it was applied with chronic immobilization stress for 15 days. Change in bodyweight and food intake amount were measured every other day. The normal group and stress group were divided again into a normal diet group and a tyrosine-supplemented diet group (181.2 mg/kg), and then fed.

[2] = test system: high-fat diet mouse model of type 2 diabetes; experiment: ROS/RNS amount in plasma, high-fat diet model; assay type: in vivo; conditions: HFD+L-Tyr vs HFD
Experimental: Twenty-seven C57BL/6 male mice (3-week old) were acclimated to the breeding condition for 1 week. […] Blood glucose was measured every week.
Mouse was anesthetized with avertin, and blood was collected from a heart. After the reaction with EDTA in a vacucontainer, the blood was centrifuged for 15 minutes at 1,500×g, 4° C. to separate plasma. According to heart perfusion with PBS and 4% paraformaldehyde (PFA), tissue fixation was carried out. Then, each tissue was harvested and stored in PFA.
After 3-fold dilution of the plasma in PBS, concentration of reactive oxygen/reactive nitrogen (ROS/RNS) in plasma was measured using Oxiselect ROS/RNS assay kit (Cell Biolabs) according to the recommended experimental protocol.

[3] = test system: mouse model of epileptic seizure which has been induced to have seizure by kainic acid; experiment: ROS/RNS in hippocampal tissues after kainic acid; assay type: in vivo; conditions: mouse survived after kainic acid, tyrosine diet vs ND
Experimental: Hippocampus in brain tissues was added with RIPA (containing proteinase/phosphatase inhibitor), in an amount of 100 μl per 10 mg of the tissues, and then lysed for 1 minute by using glass beads and a bullet blender. Supernatant was separated by centrifuge for 15 minutes at 12,000×g, 4° C., and, after 10-fold dilution with PBS, used for measurement of ROS/RNS. Concentration of ROS/RNS was measured by using Oxiselect ROS/RNS assay kit (Cell Biolabs) according to the recommended experimental protocol.

human recombinant MnSOD = molecular target: T1, human recombinant MnSOD (Homo sapiens, UniProt P04179); experiment: SOD activity of human recombinant MnSOD treated with peroxynitrite; assay type: biochemical; conditions: human recombinant MnSOD with peroxynitrite (2.1 mM PN), 10 minutes on ice
T1 sequence (P04179 25-222): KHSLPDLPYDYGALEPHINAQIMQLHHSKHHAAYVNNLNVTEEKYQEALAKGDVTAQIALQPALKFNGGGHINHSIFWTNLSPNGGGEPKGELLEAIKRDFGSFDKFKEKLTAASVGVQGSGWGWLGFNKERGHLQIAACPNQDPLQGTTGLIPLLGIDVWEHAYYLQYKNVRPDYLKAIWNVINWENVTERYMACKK
Experimental: Peroxynitrite was diluted by 40 times with 0.3 M NaOH, and absorbance at 302 nm was measured. Then, it was quantified by using the molar absorption coefficient of peroxynitrite) (ε302=1670 M^−1 cm^−1).
For the measurement of SOD activity, SOD colorimetric activity kit by ThermoFisher was used. Human recombinant MnSOD within reference SOD range, peptide, and peroxynitrite were admixed with one another, and the reaction was allowed to occur on ice for 10 minutes. To a 96-well plate, 10 μl of reference SOD or the reaction mixture, and 50 μl of a substrate solution provided in the kit were added, and the absorbance at 450 nm was measured. After adding 25μl of xanthine oxidase provided in the kit and allowing the reaction to occur for 20 minutes at room temperature, absorbance at 450 nm was measured. By using the data obtained by subtracting the first-measured absorbance from the second-measured absorbance, SOD activity was obtained.

[4] = test system: mouse model of chronic immobilization stress; experiment: object recognition test (ORT); assay type: in vivo; conditions: D-Tyr-containing diet (181 mg D-Tyr/kg AIN-93G), chronic stress 14 days
Experimental: Twenty-eight C57BL/6 male mice (7-week old) were divided into two groups, each group provided for 1 week with a normal diet or D-tyrosine (D-Tyr)-containing diet (181 mg D-Tyr/kg AIN-93G).
Once the animals become 8-week old, they were applied with chronic immobilization stress (CIS) under light condition of 200 lux, 2 hours per day for 2 weeks. The animals were divided into the control group (CTL), D-Tyr diet control group (CTL+D-Tyr), chronic stress group (STR), and D-Tyr diet chronic stress group (STR+D-Tyr), in which each group consists of 7 animals.
Upon the completion of the CIS for 2 weeks, a cognitive function test was carried out. To compare the cognitive function between the group provided with D-Tyr-containing diet over the entire test period including habituation period and normal feed diet group, an object recognition test (ORT) and an object location recognition test (OLT) for testing long-term memory skills were carried out.
ORT: The test consists of three stages, i.e., habituation, familiarization, and test. The animals were habituated in a test box, 10 minutes per day for 2 days. At the familiarization stage on Day 3, they were allowed to explore two identical objects for 10 minutes. […] The object recognition function index (i.e., discrimination index: DI) was calculated based on the following formula (3). […]

SMILES	ROS/RNS in PFC tissues [1]	ROS/RNS in plasma [1]	plasma ROS/RNS level ([2]; listed as Tyr)	ROS/RNS amount in hippocampal tissues [3]	MnSOD (SOD) activity (human recombinant MnSOD; listed as Tyr)	ORT (object recognition function index, DI) [4]	plasma ROS/RNS level [2]	MnSOD (SOD) activity (human recombinant MnSOD)
N[C@@H](Cc1ccc(O)cc1)C(=O)O [tyrosine]	statistically significant decrease in ROS/RNS	statistically significant decrease in ROS/RNS	statistically significant decrease in tissue weight and ROS/RNS amount in plasma	reduced to the level of the control group; also recorded: statistically significant decrease in ROS/RNS amount	SOD activity can be maintained	no statistically significant difference		
N[C@@H](Cc1ccc(O)cc1)C(=O)O [L-tyrosine]							statistically significant decrease in plasma ROS/RNS level	higher MnSOD activity
